How the values were obtained:
[1] = tested on: MV4-11 cells; assay: MV4-11 6-day cell growth CTG (CellTiter-Glo) assay; assay type: cell-based; details: Homo sapiens, MV4-11, 144 h, 6 days, read-out: (c) MLL/WDR5 cell proliferation assay//MLL/WDR5 proliferation MV4:11 Qualified AC50
How it was run: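 Exponentially growing MV4-11 AML cells (RPMI 1640, 10% FBS) seeded at 300 cells/well with 12-point 1:3 compound dilutions, top final concentration 50 μM. Viability read by CellTiter-Glo luminescence after 6 days at 37° C; % inhibition vs DMSO-only wells fitted to dose-response for IC50.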

[2] = biological target: WDR5 (Homo sapiens, UniProt P61964); assay: WDR5 HTRF binding assay; details: read-out: (a) WDR5 HTRF Pep Val v.1[Inhibitor/IC50]Qualified AC50
How it was run: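 6 nM WDR5 and 20 nM biotin-MLL1 WIN peptide (3762-3773) were incubated with compound (12-point, 3-fold dilutions) in pH 7.5 Hepes/NaCl/DTT buffer for 20 min at rt. Streptavidin-APC plus anti-His-Eu were then added for 1 hr, with HTRF read at 665/615. IC50 was fit from control-normalized activity; the counter assay used 15 nM biotin-PEG-His peptide.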

[3] = biological target: wild type MLL1 four-member complex (MLL1-4C) (Homo sapiens, UniProt P61964); assay: MLL1 LC-MS assay (SAH production); assay type: biochemical; details: read-out: (b) MLL LCMS Peptide Val.v.1 Qualified AC50
How it was run: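 MLL1-4C (30 nM final) was preincubated 20 min with compound (3-fold dilutions, 8 or 12 points) and SAM in Tris-HCl pH 8.0 buffer. H3K4me0 peptide (histone H3[1-21]-biotin) was then added, giving final 2.5 μM SAM and 10 μM substrate, and reactions ran 120 min at rt. After TFA/d4-SAH quench, SAH was quantified by LC-MS/MS and IC50 fitted from control-normalised activity.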

CCn1nc(CN2CCc3c(cc(Cn4ccnc4NC)cc3C3CC3)C2=O)cc1OC [Example 86, 5-cyclopropyl-2-((1-ethyl-5-methoxy-1H-pyrazol-3-yl)methyl)-7-((2-(methylamino)-1H-imidazol-1-yl)methyl)-3,4-dihydroisoquinolin-1(2H)-one]
AC50 [1]: 10 to 1000 nM
IC50 [2]: 10 to 1000 nM
AC50 [3]: 10 to 1000 nM

CCOc1cc(CN2CCc3c(cc(Cn4ccnc4NC)cc3C3CC3)C2=O)nn1C [Example 87, 5-cyclopropyl-2-((5-ethoxy-1-methyl-1H-pyrazol-3-yl)methyl)-7-((2-(methylamino)-1H-imidazol-1-yl)methyl)-3,4-dihydroisoquinolin-1(2H)-one]
AC50 [1]: 10 to 1000 nM
IC50 [2]: 10 to 1000 nM
AC50 [3]: 10 to 1000 nM

CNc1nccn1Cc1cc2c(c(N3CCCC3)c1)CCN([C@@H](C)c1cc(OC)c(F)cn1)C2=O [Example 89, (S)-2-(1-(5-fluoro-4-methoxypyridin-2-yl)ethyl)-7-((2-(methylamino)-1H-imidazol-1-yl)methyl)-5-(pyrrolidin-1-yl)-3,4-dihydroisoquinolin-1(2H)-one]
AC50 [1]: 10 to 1000 nM
IC50 [2]: < 10 nM
AC50 [3]: 10 to 1000 nM

CCOc1cc([C@H](C)N2CCc3c(cc(Cn4ccnc4NC)cc3C(F)F)C2=O)ncc1F [Example 91, (S)-5-(difluoromethyl)-2-(1-(4-ethoxy-5-fluoropyridin-2-yl)ethyl)-7-((2-(methylamino)-1H-imidazol-1-yl)methyl)-3,4-dihydroisoquinolin-1(2H)-one]
AC50 [1]: 10 to 1000 nM
IC50 [2]: 10 to 1000 nM
AC50 [3]: 10 to 1000 nM

CNc1nccn1Cc1cc2c(c(C(F)F)c1)CCN([C@@H](C)c1cc(OC)c(F)cn1)C2=O [Example 92, (S)-5-(difluoromethyl)-2-(1-(5-fluoro-4-methoxypyridin-2-yl)ethyl)-7-((2-(methylamino)-1H-imidazol-1-yl)methyl)-3,4-dihydroisoquinolin-1(2H)-one]
AC50 [1]: 10 to 1000 nM
IC50 [2]: 10 to 1000 nM
AC50 [3]: 10 to 1000 nM

CNc1nccn1Cc1cc2c(c(C(F)F)c1)CCN([C@@H](C)c1cnc(F)c(OC)c1)C2=O [Example 93, (S)-5-(difluoromethyl)-2-(1-(6-fluoro-5-methoxypyridin-3-yl)ethyl)-7-((2-(methylamino)-1H-imidazol-1-yl)methyl)-3,4-dihydroisoquinolin-1(2H)-one]
AC50 [1]: 10 to 1000 nM
IC50 [2]: 10 to 1000 nM
AC50 [3]: 10 to 1000 nM

CCOc1cc([C@H](C)N2CCc3ccc(Cn4ccnc4NC)cc3C2=O)cnc1Cl [Example 95, (S)-2-(1-(6-chloro-5-ethoxypyridin-3-yl)ethyl)-7-((2-(methylamino)-1H-imidazol-1-yl)methyl)-3,4-dihydroisoquinolin-1(2H)-one]
AC50 [1]: 10 to 1000 nM
IC50 [2]: 10 to 1000 nM
AC50 [3]: 10 to 1000 nM

CCOc1cc(CN2CCc3ccc(Cn4ccnc4NC)cc3C2=O)cnc1C#N [Example 96, 3-ethoxy-5-((7-((2-(methylamino)-1H-imidazol-1-yl)methyl)-1-oxo-3,4-dihydroisoquinolin-2(1H)-yl)methyl)picolinonitrile]
AC50 [1]: 10 to 1000 nM
IC50 [2]: 10 to 1000 nM
AC50 [3]: 10 to 1000 nM

CCOc1cc([C@H](C)N2CCc3ccc(Cn4ccnc4NC)cc3C2=O)cnc1C#N [Example 97, (S)-3-ethoxy-5-(1-(7-((2-(methylamino)-1H-imidazol-1-yl)methyl)-1-oxo-3,4-dihydroisoquinolin-2(1H)-yl)ethyl)picolinonitrile]
AC50 [1]: 10 to 1000 nM
IC50 [2]: 10 to 1000 nM
AC50 [3]: 10 to 1000 nM

CNc1nccn1Cc1cc(-c2cc(CO)cnc2Cl)c2ccn(Cc3cccc(OC(F)F)c3)c(=O)c2c1 [Example 98, 5-(2-chloro-5-(hydroxymethyl)pyridin-3-yl)-2-(3-(difluoromethoxy)benzyl)-7-((2-(methylamino)-1H-imidazol-1-yl)methyl)isoquinolin-1(2H)-one]
AC50 [1]: 10 to 1000 nM
IC50 [2]: < 10 nM
AC50 [3]: 10 to 1000 nM

CNc1nccn1Cc1cc(Br)c2ccn(Cc3ccc(F)c(OC)c3)c(=O)c2c1 [Example 99, 5-bromo-2-(4-fluoro-3-methoxybenzyl)-7-((2-(methylamino)-1H-imidazol-1-yl)methyl)isoquinolin-1(2H)-one]
AC50 [1]: 10 to 1000 nM
IC50 [2]: 10 to 1000 nM
AC50 [3]: 10 to 1000 nM

CNc1nccn1Cc1cc(-c2cc(CO)cnc2Cl)c2ccn(Cc3cccc(OC)c3)c(=O)c2c1 [Example 100, 5-(2-chloro-5-(hydroxymethyl)pyridin-3-yl)-2-(3-methoxybenzyl)-7-((2-(methylamino)-1H-imidazol-1-yl)methyl)isoquinolin-1(2H)-one]
AC50 [1]: 10 to 1000 nM
IC50 [2]: 10 to 1000 nM
AC50 [3]: 10 to 1000 nM

CNc1nccn1Cc1cc(-c2cc(CO)cnc2Cl)c2ccn(Cc3ccc(F)c(OC)c3)c(=O)c2c1 [Example 101, 5-(2-chloro-5-(hydroxymethyl)pyridin-3-yl)-2-(4-fluoro-3-methoxybenzyl)-7-((2-(methylamino)-1H-imidazol-1-yl)methyl)isoquinolin-1(2H)-one]
AC50 [1]: 10 to 1000 nM
IC50 [2]: 10 to 1000 nM
AC50 [3]: 10 to 1000 nM

CNc1nccn1Cc1cc(-c2cc(CO)cnc2Cl)c2ccn([C@@H](C)c3cccc(OC)c3)c(=O)c2c1 [Example 102, (S)-5-(2-chloro-5-(hydroxymethyl)pyridin-3-yl)-2-(1-(3-methoxyphenyl)ethyl)-7-((2-(methylamino)-1H-imidazol-1-yl)methyl)isoquinolin-1(2H)-one]
AC50 [1]: 10 to 1000 nM
IC50 [2]: 10 to 1000 nM
AC50 [3]: 10 to 1000 nM

CNc1nccn1Cc1cc(-c2cc(CO)cnc2Cl)c2ccn([C@H](C)c3cccc(OC)c3)c(=O)c2c1 [Example 103, (R)-5-(2-chloro-5-(hydroxymethyl)pyridin-3-yl)-2-(1-(3-methoxyphenyl)ethyl)-7-((2-(methylamino)-1H-imidazol-1-yl)methyl)isoquinolin-1(2H)-one]
AC50 [1]: 10 to 1000 nM
IC50 [2]: 10 to 1000 nM
AC50 [3]: 10 to 1000 nM

CNc1nccn1Cc1cc(-c2cc(CO)cnc2Cl)c2ccn(Cc3ccc(OC)c(F)c3)c(=O)c2c1 [Example 104, 5-(2-chloro-5-(hydroxymethyl)pyridin-3-yl)-2-(3-fluoro-4-methoxybenzyl)-7-((2-(methylamino)-1H-imidazol-1-yl)methyl)isoquinolin-1(2H)-one]
AC50 [1]: 10 to 1000 nM
IC50 [2]: 10 to 1000 nM
AC50 [3]: 10 to 1000 nM

CNc1nccn1Cc1cc(-c2cc(CO)cnc2Cl)c2ccn(Cc3ccc(OC)cc3)c(=O)c2c1 [Example 105, 5-(2-chloro-5-(hydroxymethyl)pyridin-3-yl)-2-(4-methoxybenzyl)-7-((2-(methylamino)-1H-imidazol-1-yl)methyl)isoquinolin-1(2H)-one]
AC50 [1]: 10 to 1000 nM
IC50 [2]: 10 to 1000 nM
AC50 [3]: 10 to 1000 nM

CNc1nccn1Cc1cc(-c2cc(C(C)O)cnc2Cl)c2ccn(Cc3ccc(F)c(OC)c3)c(=O)c2c1 (stereo not drawn) [Example 106, 5-(2-chloro-5-(1-hydroxyethyl)pyridin-3-yl)-2-(4-fluoro-3-methoxybenzyl)-7-((2-(methylamino)-1H-imidazol-1-yl)methyl)isoquinolin-1(2H)-one]
AC50 [1]: 10 to 1000 nM
IC50 [2]: 10 to 1000 nM
AC50 [3]: 10 to 1000 nM

CNc1nccn1Cc1cc(-c2cc(CO)cnc2Cl)c2ccn(Cc3cc4c(C)cccc4[nH]3)c(=O)c2c1 [Example 107, 5-(2-chloro-5-(hydroxymethyl)pyridin-3-yl)-2-((4-methyl-1H-indol-2-yl)methyl)-7-((2-(methylamino)-1H-imidazol-1-yl)methyl)isoquinolin-1(2H)-one]
AC50 [1]: 10 to 1000 nM
IC50 [2]: 10 to 1000 nM
AC50 [3]: 10 to 1000 nM

CNc1nccn1Cc1cc(-c2cc(CO)cnc2Cl)c2ccn(Cc3cc4ccccc4[nH]3)c(=O)c2c1 [Example 108, 2-((1H-indol-2-yl)methyl)-5-(2-chloro-5-(hydroxymethyl)pyridin-3-yl)-7-((2-(methylamino)-1H-imidazol-1-yl)methyl)isoquinolin-1(2H)-one]
AC50 [1]: 10 to 1000 nM
IC50 [2]: 10 to 1000 nM
AC50 [3]: 10 to 1000 nM

CCOc1cc([C@H](C)N2CCc3c(cc(CCN(C)CC)cc3-c3ccc(F)nc3C)C2=O)ncc1C#N [Example 111, (S)-4-ethoxy-6-(1-(7-(2-(ethyl(methyl)amino)ethyl)-5-(6-fluoro-2-methylpyridin-3-yl)-1-oxo-3,4-dihydroisoquinolin-2(1H)-yl)ethyl)nicotinonitrile]
AC50 [1]: 10 to 1000 nM
IC50 [2]: < 10 nM
AC50 [3]: 10 to 1000 nM

CCOc1cc(CN2CCc3c(cc(CCN(C)CC)cc3-c3cc(C)cnc3Cl)C2=O)ncc1C#N [Example 112, 6-((5-(2-chloro-5-methylpyridin-3-yl)-7-(2-(ethyl(methyl)amino)ethyl)-1-oxo-3,4-dihydroisoquinolin-2(1H)-yl)methyl)-4-ethoxynicotinonitrile]
AC50 [1]: 10 to 1000 nM
IC50 [2]: < 10 nM
AC50 [3]: 10 to 1000 nM

CCN(C)CCc1cc2c(c(-c3cn(C)nc3C)c1)CCN([C@@H](C)c1cc(OC)c(F)cn1)C2=O [Example 113, (S)-5-(1,3-dimethyl-1H-pyrazol-4-yl)-7-(2-(ethyl(methyl)amino)ethyl)-2-(1-(5-fluoro-4-methoxypyridin-2-yl)ethyl)-3,4-dihydroisoquinolin-1(2H)-one]
AC50 [1]: 10 to 1000 nM
IC50 [2]: < 10 nM
AC50 [3]: 10 to 1000 nM

Reference: patent US20220289732A1, “HETEROCYCLIC WDR5 INHIBITORS AS ANTI-CANCER COMPOUNDS” (NOVARTIS AG, priority 2019, published 2022)
